According to PubChem BioAssay (NCI):
Values joined by “and” are separate entries in the source; they are usually repeats but may differ in a detail not shown here. Equal entries are not always repeated.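 Values below derive from 48-hour exposures of cells grown in 96-well plates, with endpoints linearly interpolated between the two concentrations bracketing the appropriate inhibition level. GI50 is the concentration that inhibits growth by half. TGI: concentration producing complete growth inhibition.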

Columns and labels:
Experiment in all cases: NCI-60 cell line screen, 48 h
A498 renal = system: A498 renal
KM12 colon = system: KM12 colon
K-562 leukemia = system: K-562 leukemia
HOP-62 NSCLC = system: HOP-62 NSCLC
SK-MEL-2 melanoma = system: SK-MEL-2 melanoma
SNB-75 CNS = system: SNB-75 CNS
SW-620 colon = system: SW-620 colon
U251 CNS = system: U251 CNS

Row | SMILES | GI50 (A498 renal) [µM] | TGI (A498 renal) | GI50 (KM12 colon) [µM] | TGI (KM12 colon) | GI50 (K-562 leukemia) [µM] | TGI (K-562 leukemia) | GI50 (HOP-62 NSCLC) [µM] | TGI (HOP-62 NSCLC) | GI50 (SK-MEL-2 melanoma) [µM] | TGI (SK-MEL-2 melanoma) [µM] | GI50 (SNB-75 CNS) [µM] | TGI (SNB-75 CNS) | GI50 (SW-620 colon) [µM] | TGI (SW-620 colon) | GI50 (U251 CNS) [µM] | TGI (U251 CNS)
1 | CC1(C)OC2=C(CC1Br)C(=O)C(=O)c1ccccc12 (configuration not stated) | 1.43 | 3.07 µM | 1.75 | 3.19 µM | 2.23 | 4.89 µM | 1.99 | 3.62 µM | 1.65 | 3.57 | 1.82 | 3.26 µM | 1.91 | 3.49 µM | 1.87 | 3.87 µM
2 | CS(=O)(=O)CCNCc1ccc(-c2ccc3ncnc(Nc4ccc(OCc5ccccc5)cc4)c3c2)o1 | 2.98 | 8.27 µM | 8.85 | > 25 µM | 9.27 | > 25 µM | 9.66 | > 25 µM | 5.5 | 10.7 | 5.71 | > 25 µM | 6.94 | > 17.3 µM | 6.2 | > 25 µM
3 | O=C1C(Cl)=C(NCCN2CCOCC2)C(=O)c2ncccc21 | 1.91 | 7.65 µM and 10.9 µM | 3.55 | 3.1 µM and 16.1 µM | 1.67 | 3.67 µM and 4.61 µM | 1.77 | 4.46 µM and 3.36 µM | 2.16 | 4.37 | 1.67 | 2.85 µM and 3.58 µM | 2.45 | 6.42 µM and 6.22 µM | 1.87 | 3.12 µM and 3.3 µM
4 | CCc1ccccc1NC(=O)C1=C(C)NC(C)=C(C(=O)Nc2ccccc2CC)C1c1ccc2c(c1)OCO2 |  | 81.5 µM |  | 50.6 µM |  | > 100 µM |  | 59.8 µM |  | 53.1 |  | 89.3 µM |  | > 100 µM |  | 97.1 µM
5 | Cc1ccc(NC(=O)CC(=O)n2nc(C)c(N=Nc3ccccc3C(=O)O)c2C)cc1 |  | > 100 µM |  | > 100 µM |  | > 100 µM |  | > 100 µM |  | > 100 |  | > 100 µM |  | > 100 µM |  | > 100 µM
6 | Cc1ccc(-c2nc3nc(-c4ccccc4)nc(N4CCCNCC4)c3o2)cc1 | 1.53 | 3.13 µM | 1.77 | 3.41 µM | 0.442 | 1.86 µM | 1.81 | 3.36 µM | 2.11 | 3.84 | 1.36 | 2.68 µM | 1.55 | 3.17 µM | 1.54 | 2.91 µM
7 | CCC[CH2][Sn]1([CH2]CCC)[O]C(=O)CN=Cc2c(ccc3ccccc23)[O]1 | 1.55 | > 100 µM | 0.888 | 2.28 µM | 0.245 | 1.09 µM | 3.91 | > 100 µM | 0.251 | 0.687 | 0.295 | 1.03 µM | 0.184 | 0.417 µM | 0.351 | 1.2 µM
8 | C[N+]1=C(/C=C/c2ccc(O)c3ncccc23)C(C)(C)c2ccccc21 | 1.97 | 11 µM | 2.97 | 10.5 µM | 2.32 | > 100 µM | 3.44 | 14.5 µM | 3.88 | 24 | 2.26 | 7.78 µM | 2.85 | 11.1 µM | 2.4 | 17.1 µM
9 | C/C(O)=C(\N=O)C(=O)Nc1ccc(Cl)cc1Cl |  | > 100 µM |  | > 100 µM |  | > 100 µM |  | > 100 µM |  | > 100 |  | > 100 µM |  | > 100 µM |  | > 100 µM
10 | CCN(CC)CCCC(C)Nc1c2ccc(Cl)cc2nc2ccc(O)cc12 (configuration not stated) | 0.457 | 18.2 µM | 2.39 | 10.5 µM | 2.22 | 8.94 µM | 1.49 | 5.32 µM | 4.78 | 19.9 | 1.62 | 3.86 µM | 1.16 | 4.13 µM | 2.49 | 11.4 µM
11 | O=C1Nc2ccccc2C1(c1ccc(O)cc1)c1ccc(O)cc1 | 17.8 | 47.1 µM | 12.1 | 28.4 µM | 29.2 | > 100 µM | 20.5 | 53.1 µM | 22.9 | 50.6 | 12.7 | 38 µM | 26.2 | 83 µM | 24.2 | 63.5 µM
12 | Nc1c(-c2ccc(Cl)cc2)[n+]([O-])c2ccccc2[n+]1[O-] |  | > 100 µM |  | > 100 µM |  | > 100 µM |  | > 100 µM |  | > 100 |  | > 100 µM |  | > 100 µM |  | > 100 µM
13 | CNC(=O)C1CCc2nnc(-c3ccccc3)n21 (configuration not stated) |  | > 100 µM |  | > 100 µM |  | > 100 µM |  | > 100 µM |  | > 100 |  | > 100 µM |  | > 100 µM |  | > 100 µM
14 | Nc1nccc(-c2c(-c3ccc(F)cc3)ncn2C2CCC(O)CC2)n1 (configuration not stated) | 3.29 | > 25 µM | 7.82 | > 25 µM | 11.9 | > 25 µM | 13.2 | > 25 µM | 24.7 | > 25 | 6.61 | > 21 µM | 13.6 | > 25 µM | 9.99 | > 25 µM
15 | COc1cc2ncn(-c3cc(OCc4cccs4)c(C(N)=O)s3)c2cc1OC | 1.25 | 16.9 µM | 0.772 | > 17.5 µM | 1.14 | > 25 µM | 1.53 | > 25 µM | 2.08 | 17 | 5.72 | > 22.4 µM | 1.04 | > 20.3 µM | 1.48 | > 25 µM
16 | COc1cc2cc(Oc3ccc(NC(=O)Nc4ccc(Cl)c(C(F)(F)F)c4)cc3)c(C)nc2cc1OCCN1CCOCC1 | 2.45 | 9.62 µM | 1.91 | 5.3 µM | 0.669 | 6.95 µM | 2.05 | 4.55 µM | 1.65 | 4.06 | 1.65 | 7.05 µM | 2.31 | 5.52 µM | 1.76 | 3.89 µM
17 | O=C(O)/C=C(\c1nc2ccc([N+](=O)[O-])cc2[nH]1)c1cc(Cl)ccc1O | 2.46 | 8.7 µM | 2.84 | 17.7 µM | 2.8 | 16.6 µM | 3.55 | 28.3 µM | 2.4 | 7.59 | 3.14 | 27.6 µM | 3.66 | 17.6 µM | 3.21 | 19.2 µM
